Results: paper PMC10064984, “Anti-cyclooxygenase, anti-glycation, and anti-skin aging effect of Dendrobium officinale flowers’ aqueous extract and its phytochemical validation in aging” (Frontiers in Immunology, 2023)
Where “and” joins values, the source holds several entries; their conditions need not be identical. Equal values may be shown once. Read-outs that look alike come from different tables or passages of the source.

Key:
[1] = FRAP total antioxidant capacity; format: biochemical; conditions: lower part of sheet (compound series);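 further: colourimetric FRAP kit assay read as absorbance in 96-well plates, values as mM FeSO4 via standard curve, EC1 being sample concentration matching 1.0 mmol/L FeSO4, Trolox positive control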
[2] = ABTS·+ decolourisation capacity; format: biochemical; conditions: for ABTS scavenging rate: replicate wells, listed as T9
Procedure, shortened: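 ABTS·+ working solution in 0.2 M phosphate buffer, pH 7.4, was adjusted to A729 0.8 ± 0.05, and 100 μl was mixed with 200 μl sample; absorbance was read at 729 nm after 10 min, in triplicate. Inhibition was taken relative to a phosphate-buffer control, and IC50 was obtained graphically from dose-inhibition curves.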

DPPH· scavenging = format: biochemical; conditions: mean ± SD, n = 3
[3] = Online UPLC-PDA-MS-ABTS·+ scavenging (postcolumn derivatisation); conditions: within DOF extract
Protocol: Online identification of antioxidant components of DOF extract was performed using a UPLC system (Milford, MA, USA) consisting of a Waters photodiode array detector and a Waters postcolumn derivatisation system supplying fresh ABTS solution (UPLC-PDA-QDa-ABTS). […] The detection wavelengths were set at 280 and 734 nm, and the injection volume of the sample was 10 μl.
To detect radical scavengers, the UPLC system was coupled with a Waters pump, which supplied freshly prepared ABTS·+ solution into a reaction coil (15 m, 0.25 mm ID) with a flow rate of 0.2 ml/min at 37°C. Negative peaks were recorded based on a decrease of absorbance at 729 nm after the reaction of individual compounds with the ABTS·+ radical. For preliminary identification of compounds, a Waters Acquity QDa mass detector in negative ionisation mode was connected in series to PDA with the following parameters: electrospray ion source; cone voltage, 15 V; atomiser, N2; and scanning range, 100–800 m/z.

COX-2 = biological target: T1, COX-2 (Homo sapiens, UniProt P35354); assay: Anti-COX-2 assay (COX-2 Inhibitor Screening Kit); format: biochemical
T1 construct: purchased Beyotime S0168
T1 sequence (P35354 18-604): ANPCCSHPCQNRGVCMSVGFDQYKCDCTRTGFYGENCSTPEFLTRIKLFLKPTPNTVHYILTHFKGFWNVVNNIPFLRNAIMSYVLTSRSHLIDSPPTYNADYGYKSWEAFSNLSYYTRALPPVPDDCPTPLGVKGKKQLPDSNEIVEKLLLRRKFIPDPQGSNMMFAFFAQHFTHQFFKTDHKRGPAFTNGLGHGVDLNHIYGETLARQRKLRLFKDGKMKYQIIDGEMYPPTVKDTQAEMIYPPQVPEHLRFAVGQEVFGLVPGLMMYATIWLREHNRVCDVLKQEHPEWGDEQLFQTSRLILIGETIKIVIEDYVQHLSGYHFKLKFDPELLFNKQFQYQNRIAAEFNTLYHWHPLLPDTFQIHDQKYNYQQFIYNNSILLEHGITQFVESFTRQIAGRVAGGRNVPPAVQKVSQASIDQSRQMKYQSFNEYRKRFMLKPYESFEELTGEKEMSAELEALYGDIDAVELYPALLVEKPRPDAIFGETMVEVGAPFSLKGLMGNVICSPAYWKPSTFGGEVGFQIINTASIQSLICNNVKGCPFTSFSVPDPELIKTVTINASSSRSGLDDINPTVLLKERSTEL

[4] = Fluorescent AGEs formation in a BSA-fructose/glucose system; format: biochemical; conditions: for inhibition of fluorescent AGEs formation (BSA-抗糖化), single replicate: individual replicate; for inhibition of fluorescent AGEs formation (BSA-抗糖化), 平均 (mean): mean of 3 replicates
Procedure, shortened: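 BSA glycated in vitro with D-glucose and D-fructose while test samples, dissolved in DMSO:water (1:4), were present. Percent inhibition of fluorescent AGE formation calculated from fluorescence corrected for sample-only and BSA-free blanks; triplicate.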

[5] = 15.625 µM, listed as T9, 15.625 µM
[6] = 31.25 µM, listed as T9, 31.25 µM

- IC50 ([2]; mean ± SD, n = 3): 6.63 ± 0.41 µM
- IC50 (DPPH· scavenging): 172 ± 76 µM
- COX-2 inhibition (in words) (COX-2): great COX-2 inhibition
- inhibition at 3.125 µM (COX-2; 3.125 μM, single replicates): 18.7%
- COX-2 inhibition (COX-2; 3.125 μM, single replicates, listed as T9, 3.125 µM): 24.64% and 15.29%
- inhibition at 6.25 µM (COX-2; 6.25 μM, single replicates): 29.8%
- COX-2 inhibition (COX-2; 6.25 μM, single replicates, listed as T9, 6.25 µM): 26.80% and 27.13%
- inhibition at 12.5 µM (COX-2; 12.5 μM, single replicates): 61.6%
- COX-2 inhibition (COX-2; 12.5 μM, single replicates, listed as T9, 12.5 µM): 66.25% and 69.30%
- inhibition at 25 µM (COX-2; 25 μM, single replicates): 73.7%
- COX-2 inhibition (COX-2; 25 μM, single replicates, listed as T9, 25 µM): 76.43% and 76.52%
- inhibition at 50 µM (COX-2; 50 μM, single replicates): 77.8%
- COX-2 inhibition (COX-2; 50 μM, single replicates, listed as T9, 50 µM): 79.58% and 76.60%
- inhibition at 100 µM (COX-2; 100 μM, single replicates): 79.3%
- COX-2 inhibition (COX-2; 100 μM, single replicates, listed as T9, 100 µM): 79.42% and 83.93%
- inhibition at 200 µM (COX-2; 200 μM, single replicates): 80.9%
- COX-2 inhibition (COX-2; 200 μM, single replicates, listed as T9, 200 µM): 81.85% and 81.79%
- IC50 (COX-2; mean ± SD, n = 3, nd, not detected, read-out: COX-2 IC50): 11 ± 0.7 µM
- IC50 (COX-2; supplement sheet COX, read-out: COX-2 IC50, single replicate): 11.7 µM and 10.4 µM and 10.9 µM
- IC50 ([4]; mean ± SD, n = 3, read-out: BSA-glycation IC50): 296 ± 8.5 µM
Compound: O=c1c(OC2OC(CO)C(O)C(O)C2OC2OC(CO)C(O)C(O)C2O)c(-c2ccc(O)c(O)c2)oc2cc(O)cc(O)c12 (centres unmarked) [compound 16, Quercetin-3-O-sophoroside]
- FRAP EC1 [1]: 949.6 ± 41.9 µM
- ABTS scavenging rate ([2]; 0.1mM (second) series, concentration 1.5625 (unit not given)): 15.90% and 14.14% and 8.19%
- ABTS scavenging rate ([2]; 0.1mM (second) series, concentration 3.125 (unit not given)): 24.15% and 23.67% and 20.29%
- ABTS scavenging rate ([2]; 0.1mM (second) series, concentration 6.25 (unit not given)): 44.10% and 44.05% and 40.43%
- ABTS scavenging rate ([2]; 0.1mM (second) series, concentration 12.5 (unit not given)): 74.66% and 75.28% and 72.52%
- ABTS scavenging rate ([2]; 0.1mM (second) series, concentration 25 (unit not given)): 99.29% and 99.51% and 99.54%
- ABTS scavenging rate ([2]; 0.1mM (second) series, concentration 50 (unit not given)): 99.16% and 99.11% and 99.25%
- ABTS scavenging rate ([2]; 0.1mM (second) series, concentration 100 (unit not given)): 98.65% and 98.51% (2×)
- ABTS scavenging rate ([2]; 0.5mM series, concentration 7.8125 (unit not given)): 63.17% and 62.77% and 62.93%
- ABTS scavenging rate ([2]; 0.5mM series, concentration 15.625 (unit not given)): 91.66% and 90.68% and 90.61%
- ABTS scavenging rate ([2]; 0.5mM series, concentration 31.25 (unit not given)): 99.28% and 99.41% and 99.37%
- ABTS scavenging rate ([2]; 0.5mM series, concentration 62.5 (unit not given)): 98.95% and 98.76% and 98.72%
- ABTS scavenging rate ([2]; 0.5mM series, concentration 125 (unit not given)): 98.61% and 98.31% and 98.43%
- ABTS scavenging rate ([2]; 0.5mM series, concentration 500 (unit not given)): 98.97% and 98.88% and 98.79%
- online ABTS radical scavenging (size of negative peaks at 734 nm) [3]: strongest ABTS radical scavengers
- inhibition of fluorescent AGEs formation (BSA-抗糖化), single replicate [4, 5]: -5.89% and 1.09% and -2.67%
- inhibition of fluorescent AGEs formation (BSA-抗糖化), 平均 (mean) [4, 5]: -2.49%
- inhibition of fluorescent AGEs formation (BSA-抗糖化), single replicate [4, 6]: 4.38% and 4.16% and -1.45%
- inhibition of fluorescent AGEs formation (BSA-抗糖化), 平均 (mean) [4, 6]: 2.37%
- inhibition of fluorescent AGEs formation (BSA-抗糖化), single replicate ([4]; 62.5 µM, listed as T9, 62.5 µM): 13.91% and 12.77% and 15.77%
- inhibition of fluorescent AGEs formation (BSA-抗糖化), 平均 (mean) ([4]; 62.5 µM, listed as T9, 62.5 µM): 14.15%
- inhibition of fluorescent AGEs formation (BSA-抗糖化), single replicate ([4]; 125 µM, listed as T9, 125 µM): 29.89% and 32.42% and 28.07%
- inhibition of fluorescent AGEs formation (BSA-抗糖化), 平均 (mean) ([4]; 125 µM, listed as T9, 125 µM): 30.13%
- inhibition of fluorescent AGEs formation (BSA-抗糖化), single replicate ([4]; 250 µM, listed as T9, 250 µM): 44.67% and 46.80% and 48.36%
- inhibition of fluorescent AGEs formation (BSA-抗糖化), 平均 (mean) ([4]; 250 µM, listed as T9, 250 µM): 46.61%
- inhibition of fluorescent AGEs formation (BSA-抗糖化), single replicate ([4]; 500 µM, listed as T9, 500 µM): 63.53% and 64.37% and 63.12%
- inhibition of fluorescent AGEs formation (BSA-抗糖化), 平均 (mean) ([4]; 500 µM, listed as T9, 500 µM): 63.67%
- inhibition of fluorescent AGEs formation (BSA-抗糖化), single replicate ([4]; 1000 µM, listed as T9, 1000 µM): 79.44% and 79.91% and 79.18%
- inhibition of fluorescent AGEs formation (BSA-抗糖化), 平均 (mean) ([4]; 1000 µM, listed as T9, 1000 µM): 79.51%
- inhibition of fluorescent AGEs formation (BSA-抗糖化), single replicate ([4]; 2000 µM, listed as T9, 2000 µM): 88.85% and 89.28% and 89.06%
- inhibition of fluorescent AGEs formation (BSA-抗糖化), 平均 (mean) ([4]; 2000 µM, listed as T9, 2000 µM): 89.06%
- inhibition of fluorescent AGEs formation (BSA-抗糖化), single replicate ([4]; 4000 µM (series head 'T9 4000µM', 2-fold dilutions), listed as T9): 94.75% and 94.42% and 94.91%
- inhibition of fluorescent AGEs formation (BSA-抗糖化), 平均 (mean) ([4]; 4000 µM, listed as T9, 4000 µM): 94.69%
